“Also recorded” adds a separate entry of the source.
Experiments:
[1] = test system: patients with solid tumours; experiment: Phase I trial KHF-A-002-01: safety of Kahalalide F weekly infusion over 1 hour; format: in vivo, human
Description: The rate of subject entry and escalation to the next dose level will depend upon assessment of the safety profile of patients entered at each dose level. Toxicity will be evaluated and graded according to the Common Toxicity Criteria, version 2.0.
In order to minimize the number of patients treated at the subtoxic dose levels, a single patient will be treated per dose level with 100% dose escalation in the absence of any toxicity G2 (excluding alopecia) during their first course of treatment. After the occurrence of grade 2 toxicity (excluding asthenia, alopecia, nausea and vomiting or anemia), the dose level is expanded to three patients with only 50% incremental increase in dosage in advancing to the next dose level. For the occurrence of grade 3 non-hematological toxic effects the dose level should be expanded up to six patients. This second cohort of 3 patients will be included consecutively. If the first or second patient develops dose limiting toxicities no further patients will be treated at this dose level, it will be defined as MTD and the accrual will begin at a lower dose level. If only one DLT occurs at this dose level another 3 patients will be included at the next dose level with an increase of 25% only.
The maximum tolerated dose (MTD) is defined as the dose at which at least 2 out of 3 or more than 3 patients experience DLT. However, it is possible that additional patients may experience DLT due to the timing of patient enrollment into that dose level.
The toxicity will be evaluated and clasified in grades according to the Common Toxicity Criteria (CTC) version NCI 2.0, March 1998.
Dose Limiting Toxicities (DLTs) are Defined as Follows: […]
ANC <500/mm3 for more than 5 days.
ANC <500/mm3 with a temperature of 38'5 or more.
Any other non-hematological grade 3-4 toxicity excluding: nausea, emesis without prophilaxis
G3 transaminases increase >14 days
Hypersensibility reactions

[2] = test system: advanced or metastatic androgen refractory prostate cancer
Description: OBJECTIVE: In the present phase I clinical and pharmacokinetic (PK) study the toxicity profiles PK and anti-tumour activity of KF are investigated. METHODS: KF is administered as an intravenous infusion over one hour, during five consecutive days every three weeks in patients with advanced or metastatic androgen refractory prostate cancer. On the basis of the MTD values defined in mice, a starting dose of 20 μg/m2/day was selected, which is equivalent to a total dose of 100 μg/m2. PK of KF were determined in plasma during the first course. Bioanalysis of KF was performed by LC-MS/MS. LDH, AF and especially PSA levels of each patient were also evaluated during the study to determine the activity of KF. […] One patient per level was entered at 20, 40, 80 and 160 μg/m2/day. […] The first patient of this study was re-entered at this dose level.

[3] = weekly 1 h infusion, all dose levels
[4] = weekly 1 h infusion, all dose levels, 19 patients evaluated
[5] = weekly 1 h infusion, all dose levels, head prints 20 patients

## C/C=C1\NC(=O)[C@H](Cc2ccccc2)NC(=O)[C@@H](C(C)C)NC(=O)[C@@H](C(C)CC)NC(=O)[C@H](NC(=O)C(NC(=O)[C@H](CCCN)NC(=O)[C@H]2CCCN2C(=O)[C@H](NC(=O)[C@@H](NC(=O)[C@@H](NC(=O)[C@H](NC(=O)CCCC(C)C)C(C)C)C(C)O)C(C)C)C(C)C)C(C)CC)C(C)OC(=O)[C@H](C(C)C)NC1=O (single isomer, unassigned) [kahalalide F]
Prostate cancer
  concentration from which active in the clonogenic tumour assay: ≥ 15 ng/mL
[1]; 800-1200 mcg/m2/wk
  incidence of grade 4 hypertransaminasemia: all the patients had grade 4 hypertransaminasemia
[1]; 1200 mcg/m2 weekly
  time of onset of grade 4 hypertransaminasemia after the infusion: 5 h
[1]; Level VI, dose 1000 weekly, 3 patients
  Worst toxicity: Hypersensitivity; also recorded: hypertrans
[1]; highest dose level (1000 and 1200)
  Bronchoconstriction observed: two patients
[1]; patients remained asymptomatic
  reversibility of hypertransaminasemia overall: completely reversible
[1]; patients treated at 1000 and 1200
  reversibility of hypertransaminasemia: not reversible by day 8
[1]; weekly 1 h infusion
  dose at which the DLT (grade 4 hypertransaminasemia non reversible by day 21) was identified: 1200 mcg/m2
[1]; [3]
  Nonhematologic toxicity, laboratory abnormalities: Alk. phosphatase, Grade 1: 27.8
  Nonhematologic toxicity, laboratory abnormalities: Alk. phosphatase, Grade 2: 11.1
  Nonhematologic toxicity, laboratory abnormalities: Alk. phosphatase, Grade 3: 0
  Nonhematologic toxicity, laboratory abnormalities: Alk. phosphatase, Grade 4: 0
  Nonhematologic toxicity, laboratory abnormalities: Bilirubin, Grade 1: 5.6
  Nonhematologic toxicity, laboratory abnormalities: Bilirubin, Grade 2: 0
  Nonhematologic toxicity, laboratory abnormalities: Bilirubin, Grade 3: 0
  Nonhematologic toxicity, laboratory abnormalities: Bilirubin, Grade 4: 0
  Nonhematologic toxicity, laboratory abnormalities: CPK, Grade 1: 36.8
  Nonhematologic toxicity, laboratory abnormalities: CPK, Grade 2: 0
  Nonhematologic toxicity, laboratory abnormalities: CPK, Grade 3: 0
  Nonhematologic toxicity, laboratory abnormalities: CPK, Grade 4: 0
  Nonhematologic toxicity, laboratory abnormalities: Ca++ hyper, Grade 1: 84.2
  Nonhematologic toxicity, laboratory abnormalities: Ca++ hyper, Grade 2: 0
  Nonhematologic toxicity, laboratory abnormalities: Ca++ hyper, Grade 3: 0
  Nonhematologic toxicity, laboratory abnormalities: Ca++ hyper, Grade 4: 0
  Nonhematologic toxicity, laboratory abnormalities: Ca++ hypo, Grade 1: 21.1
  Nonhematologic toxicity, laboratory abnormalities: Ca++ hypo, Grade 2: 0
  Nonhematologic toxicity, laboratory abnormalities: Ca++ hypo, Grade 3: 0
  Nonhematologic toxicity, laboratory abnormalities: Ca++ hypo, Grade 4: 0
  Nonhematologic toxicity, laboratory abnormalities: Creatinine, Grade 1: 31.6
  Nonhematologic toxicity, laboratory abnormalities: Creatinine, Grade 2: 5.3
  Nonhematologic toxicity, laboratory abnormalities: Creatinine, Grade 3: 0
  Nonhematologic toxicity, laboratory abnormalities: Creatinine, Grade 4: 0
  Nonhematologic toxicity, laboratory abnormalities: GGT, Grade 1: 16.7
  Nonhematologic toxicity, laboratory abnormalities: GGT, Grade 2: 11.1
  Nonhematologic toxicity, laboratory abnormalities: GGT, Grade 3: 5.6
  Nonhematologic toxicity, laboratory abnormalities: GGT, Grade 4: 11.1
  Nonhematologic toxicity, laboratory abnormalities: GOT, Grade 1: 38.9
  Nonhematologic toxicity, laboratory abnormalities: GOT, Grade 2: 0
  Nonhematologic toxicity, laboratory abnormalities: GOT, Grade 3: 0
  Nonhematologic toxicity, laboratory abnormalities: GOT, Grade 4: 16.7
  Nonhematologic toxicity, laboratory abnormalities: GPT, Grade 1: 22.2
  Nonhematologic toxicity, laboratory abnormalities: GPT, Grade 2: 5.6
  Nonhematologic toxicity, laboratory abnormalities: GPT, Grade 3: 0
  Nonhematologic toxicity, laboratory abnormalities: GPT, Grade 4: 16.7
  Nonhematologic toxicity, laboratory abnormalities: K+ hypo, Grade 1: 5.3
  Nonhematologic toxicity, laboratory abnormalities: K+ hypo, Grade 2: 0
  Nonhematologic toxicity, laboratory abnormalities: K+ hypo, Grade 3: 0
  Nonhematologic toxicity, laboratory abnormalities: K+ hypo, Grade 4: 0
  Nonhematologic toxicity, laboratory abnormalities: Na+ hypo, Grade 1: 21.1
  Nonhematologic toxicity, laboratory abnormalities: Na+ hypo, Grade 2: 0
  Nonhematologic toxicity, laboratory abnormalities: Na+ hypo, Grade 3: 0
  Nonhematologic toxicity, laboratory abnormalities: Na+ hypo, Grade 4: 5.3
[1]; [4]
  Hematologic toxicity (worst per patient): Hemoglobin, Grade 1: 57.9
  Hematologic toxicity (worst per patient): Hemoglobin, Grade 2: 21.1
  Hematologic toxicity (worst per patient): Hemoglobin, Grade 3: 0
  Hematologic toxicity (worst per patient): Hemoglobin, Grade 4: 0
  Hematologic toxicity (worst per patient): Leukocytes, Grade 1: 15.8
  Hematologic toxicity (worst per patient): Leukocytes, Grade 2: 5.3
  Hematologic toxicity (worst per patient): Leukocytes, Grade 3: 0
  Hematologic toxicity (worst per patient): Leukocytes, Grade 4: 0
  Hematologic toxicity (worst per patient): Neutrophils, Grade 1: 5.3
  Hematologic toxicity (worst per patient): Neutrophils, Grade 2: 5.3
  Hematologic toxicity (worst per patient): Neutrophils, Grade 3: 0
  Hematologic toxicity (worst per patient): Neutrophils, Grade 4: 0
  Hematologic toxicity (worst per patient): Platelets, Grade 1: 10.5
  Hematologic toxicity (worst per patient): Platelets, Grade 2: 0
  Hematologic toxicity (worst per patient): Platelets, Grade 3: 0
  Hematologic toxicity (worst per patient): Platelets, Grade 4: 0
[1]; [5]
  Most frequently reported non-hematologic toxicities: Diarrhea, Grade 1: 0
  Most frequently reported non-hematologic toxicities: Diarrhea, Grade 2: 5.3
  Most frequently reported non-hematologic toxicities: Diarrhea, Grade 3: 5.3
  Most frequently reported non-hematologic toxicities: Diarrhea, Grade 4: 0
  Most frequently reported non-hematologic toxicities: Fatigue, Grade 1: 21.1
  Most frequently reported non-hematologic toxicities: Fatigue, Grade 2: 21.1
  Most frequently reported non-hematologic toxicities: Fatigue, Grade 3: 0
  Most frequently reported non-hematologic toxicities: Fatigue, Grade 4: 0
  Most frequently reported non-hematologic toxicities: Hypersensitivity, Grade 1: 15.8
  Most frequently reported non-hematologic toxicities: Hypersensitivity, Grade 2: 5.3
  Most frequently reported non-hematologic toxicities: Hypersensitivity, Grade 3: 5.3
  Most frequently reported non-hematologic toxicities: Hypersensitivity, Grade 4: 0
  Most frequently reported non-hematologic toxicities: Hypertension, Grade 1: 0
  Most frequently reported non-hematologic toxicities: Hypertension, Grade 2: 0
  Most frequently reported non-hematologic toxicities: Hypertension, Grade 3: 0
  Most frequently reported non-hematologic toxicities: Hypertension, Grade 4: 0
  Most frequently reported non-hematologic toxicities: Inject-site reaction, Grade 1: 0
  Most frequently reported non-hematologic toxicities: Inject-site reaction, Grade 2: 5.3
  Most frequently reported non-hematologic toxicities: Inject-site reaction, Grade 3: 0
  Most frequently reported non-hematologic toxicities: Inject-site reaction, Grade 4: 0
  Most frequently reported non-hematologic toxicities: Nausea, Grade 1: 31.6
  Most frequently reported non-hematologic toxicities: Nausea, Grade 2: 10.5
  Most frequently reported non-hematologic toxicities: Nausea, Grade 3: 0
  Most frequently reported non-hematologic toxicities: Nausea, Grade 4: 0
  Most frequently reported non-hematologic toxicities: Periph-sens neuro, Grade 1: 36.8
  Most frequently reported non-hematologic toxicities: Periph-sens neuro, Grade 2: 0
  Most frequently reported non-hematologic toxicities: Periph-sens neuro, Grade 3: 5.3
  Most frequently reported non-hematologic toxicities: Periph-sens neuro, Grade 4: 0
  Most frequently reported non-hematologic toxicities: Vomiting, Grade 1: 10.5
  Most frequently reported non-hematologic toxicities: Vomiting, Grade 2: 5.3
  Most frequently reported non-hematologic toxicities: Vomiting, Grade 3: 0
  Most frequently reported non-hematologic toxicities: Vomiting, Grade 4: 0
[1]; weekly schedule
  dose limiting toxicity: grade 4 hypertransaminasemia
  time of hypertransaminasemia peak/appearance after the infusion: 4 to 5 h
[2]; one patient, associated with pain relief, preliminary report
  decrease in PSA level: > 50%
[2]; patient received 8 cycles, clinical improvement
  response evaluated by PSA, one patient: partial response
[2]; preliminary report
  PSA change in two additional patients: minor PSA reductions
